Measured values: a compilation of properties of binary mixtures (doi:10.1021/acs.jced.3c00239)

Experiment: xn = mol fraction of the nth substance listed
Details: 100 kPa

CCCCO + CC[n+]1ccn(C)c1.N#C[N-]C#N
x2 = 0
Details	speed of sound [m/s]	viscosity [mPa·s]
298.15 K	1241	2.69
303.15 K	1224	2.41
308.15 K	1207	2.17
313.15 K	1191	1.91
318.15 K	1174	1.71
323.15 K	1158	1.57

CC[n+]1ccn(C)c1.N#C[N-]C#N + CCCCO
Details	speed of sound [m/s]	viscosity [mPa·s]
298.15 K, x1 = 0.1015	1316	2.73
298.15 K, x1 = 0.2007	1385	2.85
298.15 K, x1 = 0.4008	1515	3.54
298.15 K, x1 = 0.5021	1575	4.21
298.15 K, x1 = 0.6014	1629	5.1
298.15 K, x1 = 0.7012	1685	6.4
298.15 K, x1 = 0.8016	1725	7.9
298.15 K, x1 = 0.9012	1763	10
298.15 K, x1 = 1	1787	13.1
303.15 K, x1 = 0.1015	1300	2.36
303.15 K, x1 = 0.2007	1369	2.41
303.15 K, x1 = 0.3006	1435	2.63
303.15 K, x1 = 0.4008	1499	2.99
303.15 K, x1 = 0.5021	1559	3.55
303.15 K, x1 = 0.6014	1613	4.26
303.15 K, x1 = 0.7012	1669	5.2
303.15 K, x1 = 0.8016	1709	6.6
303.15 K, x1 = 1	1775	11.8
308.15 K, x1 = 0.1015	1283	2.11
308.15 K, x1 = 0.2007	1352	2.17
308.15 K, x1 = 0.5021	1542	2.86
308.15 K, x1 = 0.6014	1596	3.47
308.15 K, x1 = 0.9012	1730	7.3
308.15 K, x1 = 1	1763	10.9
313.15 K, x1 = 0.1015	1266	1.91
313.15 K, x1 = 0.4008	1466	2.16
313.15 K, x1 = 0.5021	1525	2.38
313.15 K, x1 = 0.6014	1580	2.89
313.15 K, x1 = 0.7012	1636	3.58
313.15 K, x1 = 0.8016	1676	4.42
313.15 K, x1 = 0.9012	1713	6
313.15 K, x1 = 1	1751	9
318.15 K, x1 = 0.1015	1250	1.71
318.15 K, x1 = 0.2007	1319	1.79
318.15 K, x1 = 0.3006	1385	1.86
318.15 K, x1 = 0.4008	1449	1.93
318.15 K, x1 = 0.5021	1509	2.07
318.15 K, x1 = 0.7012	1619	2.91
318.15 K, x1 = 0.8016	1659	3.61
318.15 K, x1 = 0.9012	1697	5
318.15 K, x1 = 1	1739	8.1
323.15 K, x1 = 0.1015	1233	1.52
323.15 K, x1 = 0.3006	1369	1.63
323.15 K, x1 = 0.5021	1492	1.84
323.15 K, x1 = 0.6014	1547	1.99
323.15 K, x1 = 0.7012	1603	2.43
323.15 K, x1 = 0.8016	1643	3.03
323.15 K, x1 = 0.9012	1680	4.01
323.15 K, x1 = 1	1727	7.3
